According to patent publication US12421280B2, “Insulin like growth factor binding protein bioactive peptide fragments” (Northwestern University, priority 2019, dated 2025):
Where “and” joins values, the source holds several entries; their conditions need not be identical. Equal values may be shown once.

What was measured:
Type in all cases: in vivo, rat
[1] = test system: male SD rats; assay: Porsolt forced swim test; conditions: 1 hr post-dosing; for antidepressant-like effect in the Porsolt test as measured by floating time, compared with ketamine: 1 μg/kg i.v., FIG. 1A; for antidepressant-like effect in the Porsolt test (floating time), compared with IGFBP2: dose not specified, FIG. 2 legend; for antidepressant-like effect in the Porsolt test as measured by floating time, compared with IGFBP2: FIG. 2
Protocol: Adult male (2-3 month old) Sprague-Dawley (SD) rats were purchased from Harlan (USA) for the Porsolt Forced Swim Test. Rats were housed in Lucite cages with aspen wood chip bedding, maintained on a 12:12 light:dark cycle (lights on at 5 AM), and given ad libitum access to Purina lab chow (USA) and tap water throughout the study. All experiments were approved by the Sai Life Sciences (India) Animal Care and Use Committees.
Porsolt forced swim testing was conducted as described in (Burgdorf et al., Neuropsychopharmacology, (2013), 38(5):729-742). Rats were dosed with IGFBP1-7 (1 microgram/kg i.v.; peprotech, USA) (3 mg/kg, i.v.), ketamine ([…] i.v.; Sigma, USA) or 0.9% sterile saline vehicle (1 ml/kg, i.v.). Injections were made in the lateral tail vein and rats were tested 1 hr post-dosing. Animals were placed in a 46 cm tall×20 cm in diameter clear glass tube filled to 30 cm with tap water (23±1° C.) for 15 min on the first day (habituation) and 5 min on the subsequent test day. Water was changed after every other animal. Animals were videotaped, and tapes were scored offline by a blind experimenter with high inter-rater reliability (Pearson's r>0.9). Floating time (sec) was defined as the minimal amount of effort required to keep the animal's head above and diving (number of incidences) was registered when the whole body of the animal was submersed and the animal's head was facing towards the bottom of the tank.
Based on the results of the Porsolt test in Example 1, IGFBP2, IGFBP3, and IGFBP5 were identified as the best binding proteins for inducing robust antidepressant-like effects without side effects. Given the structural similarities between all 7 IGFBPs, an amino acid sequence homology was performed to identify sequences that were homologues between IGFBP2, IGFBP3, and IGFBP5 and were not consistently shared with IGFBP1, IGFBP6 and IGFBP7. Based on this analysis, three peptides were identified (KHGLYNLKQCKMSLNGQ (SEQ ID NO: 1); PKKLRP (SEQ ID NO: 2); RGD). These peptides were synthesized using standard solid phase peptide chemistry and were assessed in the Porsolt Test as described above.

[2] = test system: rats; assay: Contextual fear extinction (model of PTSD); conditions: 1 mg/kg IV one hour before the first extinction session
Protocol: (§1) These experiments were conducted as described in Burgdorf et al. (Int. J. Neuropsychopharmacol., 2017, 20:476-484).

[3] = test system: rats; assay: Positive emotional learning: hedonic 50-kHz ultrasonic vocalizations during heterospecific play, with center crosses in the same assay; conditions: 0.01, 0.1, 1, 10, and 30 mg/kg vs. vehicle, P<0.05
Protocol: as §1

[4] = Table 1 raw data, one value per rat, ketamine 10 mg/kg i.v., 5 min test session

IGFBP7: insulin-like growth factor binding protein 7 (peprotech, USA)
antidepressant-like effect in the Porsolt test as measured by floating time, compared with ketamine ([1]; ketamine 10 mg/kg i.v.): equivalent antidepressant-like effect | floating (floating time) ([1]; Table 1 raw data, one value per rat, IGFBP 1 μg/kg i.v., 5 min test session, listed as BP7): 24.5 s and 123.8 s and 52.5 s and 94.4 s and 9.8 s and 30.8 s and 60.1 s

IGFBP5: insulin-like growth factor binding protein 5 (peprotech, USA)
antidepressant-like effect in the Porsolt test as measured by floating time, compared with ketamine ([1]; ketamine 10 mg/kg i.v.): equivalent antidepressant-like effect as ketamine | floating (floating time) ([1]; Table 1 raw data, one value per rat, IGFBP 1 μg/kg i.v., 5 min test session, listed as BP5): 14.4 sec and 104.6 sec and 55 sec and 8.4 sec and 27.7 sec (2×) and 25.7 sec

PKKLRP [made by solid phase peptide chemistry]
antidepressant-like effect in the Porsolt test (floating time), compared with IGFBP2 [1]: equivalent antidepressant-like effect as IGFBP2 | floating (floating time) ([1]; Table 2 raw data, one value per rat, dose 20 (low dose, unit not given), listed as PK . . .): 16.6 s and 6.6 s and 10.2 s and 26.2 s and 18.2 s and 15.5 s and 22.4 s and 7.6 s | floating (floating time) ([1]; Table 2 raw data, one value per rat, dose 200 (high dose, unit not given), listed as PK . . .): 17.3 s and 4.3 s and 47.8 s and 9 s and 18.4 s and 45.6 s and 2.3 s and 7.7 s | antidepressant-like effect in the Porsolt test as measured by floating time, compared with IGFBP2 ([1]; high dose): equivalent or superior antidepressant-like effect | antidepressant-like effect in the Porsolt test as measured by floating time, compared with IGFBP2 ([1]; low dose): equivalent or superior antidepressant-like effect | spontaneous recovery (difference in freezing 14 days post dosing versus extinction session 6) ([2]; FIG. 3D): increased | contextual fear extinction across each test day ([2]; sessions 1-6 drug vs. vehicle, P<0.05, FIG. 3C): increased contextual fear extinction | center crosses (index of an anxiolytic drug effect) ([3]; FIG. 3B): increased | positive emotional learning (rates of hedonic ultrasonic vocalizations during heterospecific play) ([3]; 1 hr post dosing, FIG. 3A): increased positive emotional learning

KHGLYNLKQCKMSLNGQ [made by solid phase peptide chemistry]
antidepressant-like effect in the Porsolt test (floating time), compared with IGFBP2 [1]: equivalent antidepressant-like effect as IGFBP2 | floating (floating time) ([1]; Table 2 raw data, one value per rat, dose 54 (low dose, unit not given), listed as KH . . .): 29.2 s and 26.5 s and 25.2 s and 24.2 s and 43.3 s and 33.4 s and 53.8 s and 27.4 s | floating (floating time) ([1]; Table 2 raw data, one value per rat, dose 540 (high dose, unit not given), listed as KH . . .): 108.7 s and 94.8 s and 121.4 s and 149.1 s and 101.5 s and 105.8 s and 130 s and 147.9 s | antidepressant-like effect in the Porsolt test as measured by floating time, compared with IGFBP2 ([1]; low dose): equivalent or superior antidepressant-like effect

CNC1(c2ccccc2Cl)CCCCC1=O (stereo not drawn) [ket, ketamine, reference compound]
diving (number of incidences) [1, 4]: 0 (6×) and 1 | floating (floating time) [1, 4]: 30.5 s and 55 s and 79.5 s and 31.2 s and 59.3 s and 78.1 s and 39.6 s

IGFBP3: insulin-like growth factor binding protein 3 (peprotech, USA)
antidepressant-like effect in the Porsolt test as measured by floating time, compared with ketamine ([1]; ketamine 10 mg/kg i.v.): equivalent antidepressant-like effect as ketamine | floating (floating time) ([1]; Table 1 raw data, one value per rat, IGFBP 1 μg/kg i.v., 5 min test session, listed as BP3): 29.3 s and 35.8 s and 42.8 s and 23.3 s and 84.9 s and 140.5 s and 142.3 s

RGD
floating (floating time) ([1]; Table 2 raw data, one value per rat, dose 9 (unit not given)): 115.4 s and 132.9 s and 113.1 s and 125.8 s and 108.2 s and 140.6 s and 139.7 s and 127.8 s | floating (floating time) ([1]; Table 2 raw data, one value per rat, dose 90 (unit not given)): 137 s and 169 s and 132.7 s and 133.6 s and 81.6 s and 143.4 s and 149.6 s and 123.7 s

B1: IGFBP1: insulin-like growth factor binding protein 1 (peprotech, USA) (protein, UniProt P08833 26-259, looked up)
Insulin-like growth …: APWQCAPCSAEKLALCPPVSASCSEVTRSAGCGCCPMCALPLGAACGVATARCARGLSCRALPGEQQPLHALTRGQGACVQESDASAPHAAEAGSPESPESTEITEEELLDNFHLMAPSEEDHSILWDAISTYDGSKALHVTNIKKWKEPCRIELYRVVESLAKAQETSGEEISKFYLPNCNKNGFYHSRQCETSMDGEAGLCWCVYPWNGKRIPGSPEIRGDPNCQIYFNVQN
floating (floating time) ([1]; Table 1 raw data, one value per rat, IGFBP 1 μg/kg i.v., 5 min test session, listed as BP1): 156.8 s and 143.4 s and 67.5 s and 179.1 s and 130.7 s and 96.8 s and 187.9 s

B2: IGFBP4: insulin-like growth factor binding protein 4 (peprotech, USA) (protein, UniProt P22692 22-258, looked up)
Insulin-like growth …: DEAIHCPPCSEEKLARCRPPVGCEELVREPGCGCCATCALGLGMPCGVYTPRCGSGLRCYPPRGVEKPLHTLMHGQGVCMELAEIEAIQESLQPSDKDEGDHPNNSFSPCSAHDRRCLQKHFAKIRDRSTSGGKMKVNGAPREDARPVPQGSCQSELHRALERLAASQSRTHEDLYIIPIPNCDRNGNFHPKQCHPALDGQRGKCWCVDRKTGVKLPGGLEPKGELDCHQLADSFRE
floating (floating time) ([1]; Table 1 raw data, one value per rat, IGFBP 1 μg/kg i.v., 5 min test session, listed as BP4): 32.4 s and 137.2 s and 175.7 s and 189.5 s and 59 s and 64.7 s and 172.9 s

B3: IGFBP6: insulin-like growth factor binding protein 6 (peprotech, USA) (protein, UniProt P24592 28-240, looked up)
Insulin-like growth …: RCPGCGQGVQAGCPGGCVEEEDGGSPAEGCAEAEGCLRREGQECGVYTPNCAPGLQCHPPKDDEAPLRALLLGRGRCLPARAPAVAEENPKESKPQAGTARPQDVNRRDQQRNPGTSTTPSQPNSAGVQDTEMGPCRRHLDSVLQQLQTEVYRGAQTLYVPNCDHRGFYRKRQCRSSQGQRRGPCWCVDRMGKSLPGSPDGNGSSSCPTGSSG
antidepressant-like effect in the Porsolt test as measured by floating time, compared with ketamine ([1]; ketamine 10 mg/kg i.v.): equivalent antidepressant-like effect | floating (floating time) ([1]; Table 1 raw data, one value per rat, IGFBP 1 μg/kg i.v., 5 min test session, listed as BP6): 25.6 s and 36.6 s and 10.9 s and 45 s and 27.2 s and 35.5 s and 36.3 s

B4: IGFBP2: insulin-like growth factor binding protein 2 (peprotech, USA); positive control in Example 2 (protein, UniProt P18065 36-325, looked up)
Insulin-like growth …: AEVLFRCPPCTPERLAACGPPPVAPPAAVAAVAGGARMPCAELVREPGCGCCSVCARLEGEACGVYTPRCGQGLRCYPHPGSELPLQALVMGEGTCEKRRDAEYGASPEQVADNGDDHSEGGLVENHVDSTMNMLGGGGSAGRKPLKSGMKELAVFREKVTEQHRQMGKGGKHHLGLEEPKKLRPPPARTPCQQELDQVLERISTMRLPDERGPLEHLYSLHIPNCDKHGLYNLKQCKMSLNGQRGECWCVNPNTGKLIQGAPTIRGDPECHLFYNEQQEARGVHTQRMQ
antidepressant-like effect in the Porsolt test as measured by floating time, compared with ketamine ([1]; ketamine 10 mg/kg i.v.): equivalent antidepressant-like effect as ketamine | floating (floating time) ([1]; Table 1 raw data, one value per rat, IGFBP 1 μg/kg i.v., 5 min test session, listed as BP2): 59.8 s and 45.5 s and 41.6 s and 43.5 s and 25.7 s and 68.2 s and 83.6 s | floating (floating time) ([1]; Table 2 raw data, one value per rat, positive control IGFBP2, dose not given, listed as BP2): 37.2 s and 67.1 s and 22 s and 35.6 s and 28.2 s and 65.8 s and 44.3 s and 79.1 s
